Measured values taken from ChEMBL document CHEMBL3885881, “DrugMatrix”.

Species: Rattus norvegicus
Assay: DrugMatrix - Regimen: Daily Repeat
Type: toxicity, organism-based, Sprague-Dawley
Set-up: regimen Daily Repeat, gender Male, age 6-8 weeks
Conditions: in vivo, po, route oral GAVAGE, vehicle .5 % CMC; for ABSOLUTE BASOPHIL / ABSOLUTE EOSINOPHIL / ABSOLUTE LYMPHOCYTE / ABSOLUTE MONOCYTE / ABSOLUTE SEGMENTED NEUTROPHIL / BASOPHIL / EOSINOPHIL / ERYTHROCYTE COUNT / HEMATOCRIT / HEMOGLOBIN / LEUKOCYTE COUNT / LYMPHOCYTE / MEAN CORPUSCULAR HEMOGLOBIN / MEAN CORPUSCULAR HEMOGLOBIN CONCENTRATION / MEAN CORPUSCULAR VOLUME / MONOCYTE / NEUTROPHIL / NUCLEATED RED BLOOD CELLS / PLATELET COUNT: tissue Blood; for ALANINE AMINOTRANSFERASE / ALBUMIN / ALKALINE PHOSPHATASE / ASPARTATE AMINOTRANSFERASE / BLOOD UREA NITROGEN / CARBON DIOXIDE / CHLORIDE / CHOLESTEROL / CREATINE PHOSPHOKINASE / CREATININE / GLUCOSE / LACTATE DEHYDROGENASE / LIPASE / PHOSPHORUS / POTASSIUM / SODIUM / TOTAL BILIRUBIN / TOTAL PROTEIN / URIC ACID: tissue Plasma
[1] = 0 mg/kg, 72 h, dose level Control, time 3 day
[2] = 0 mg/kg, 120 h, dose level Control, time 5 day
[3] = 50 mg/kg, 72 h, dose level Low, time 3 day

CC1(C)[C@H]2CC[C@]1(C)C(=O)C2 [(-)-CAMPHOR]
ABSOLUTE BASOPHIL [1]: 0 CELLS/uL
ABSOLUTE EOSINOPHIL [1]: 222.83 CELLS/uL
ABSOLUTE LYMPHOCYTE [1]: 14453 CELLS/uL
ABSOLUTE MONOCYTE [1]: 0 CELLS/uL
ABSOLUTE SEGMENTED NEUTROPHIL [1]: 1490.83 CELLS/uL
BASOPHIL [1]: 0%
EOSINOPHIL [1]: 1.33%
ERYTHROCYTE COUNT [1]: 5.76 x10E6/uL
HEMATOCRIT [1]: 36.52%
HEMOGLOBIN [1]: 13.45 G/DL
LEUKOCYTE COUNT [1]: 16.17 x10E3/uL
LYMPHOCYTE [1]: 89.33%
MEAN CORPUSCULAR HEMOGLOBIN [1]: 23.37 pg
MEAN CORPUSCULAR HEMOGLOBIN CONCENTRATION [1]: 36.85 G/DL
MEAN CORPUSCULAR VOLUME [1]: 63.47 fL
MONOCYTE [1]: 0%
NEUTROPHIL [1]: 9.33%
NUCLEATED RED BLOOD CELLS [1]: 0 /100WBC
PLATELET COUNT [1]: 1239.5 x10E3/uL
ALANINE AMINOTRANSFERASE [1]: 43.83 u/L
ALBUMIN [1]: 4.27 G/DL
ALKALINE PHOSPHATASE [1]: 398.83 u/L
ASPARTATE AMINOTRANSFERASE [1]: 81.17 u/L
BLOOD UREA NITROGEN [1]: 17.67 mg/dL
CARBON DIOXIDE [1]: 27.5 mmol/L
CHLORIDE [1]: 99.17 MEQ/L
CHOLESTEROL [1]: 74 mg/dL
CREATINE PHOSPHOKINASE [1]: 331.5 u/L
CREATININE [1]: 0.2 mg/dL
GLUCOSE [1]: 171.33 mg/dL
LACTATE DEHYDROGENASE [1]: 241.67 u/L
LIPASE [1]: 9.5 u/L
PHOSPHORUS [1]: 12.25 mg/dL
POTASSIUM [1]: 6.33 MEQ/L
SODIUM [1]: 141.28 MEQ/L
TOTAL BILIRUBIN [1]: 0.15 mg/dL
TOTAL PROTEIN [1]: 5.98 G/DL
URIC ACID [1]: 1.63 mg/dL
ABSOLUTE BASOPHIL [2]: 0 CELLS/uL
ABSOLUTE EOSINOPHIL [2]: 148.67 CELLS/uL
ABSOLUTE LYMPHOCYTE [2]: 16020.5 CELLS/uL
ABSOLUTE MONOCYTE [2]: 29.17 CELLS/uL
ABSOLUTE SEGMENTED NEUTROPHIL [2]: 1468.33 CELLS/uL
BASOPHIL [2]: 0%
EOSINOPHIL [2]: 1%
ERYTHROCYTE COUNT [2]: 5.78 x10E6/uL
HEMATOCRIT [2]: 35.77%
HEMOGLOBIN [2]: 13.4 G/DL
LEUKOCYTE COUNT [2]: 17.67 x10E3/uL
LYMPHOCYTE [2]: 90.5%
MEAN CORPUSCULAR HEMOGLOBIN [2]: 23.22 pg
MEAN CORPUSCULAR HEMOGLOBIN CONCENTRATION [2]: 37.47 G/DL
MEAN CORPUSCULAR VOLUME [2]: 61.92 fL
MONOCYTE [2]: 0.17%
NEUTROPHIL [2]: 8.33%
NUCLEATED RED BLOOD CELLS [2]: 0.17 /100WBC
PLATELET COUNT [2]: 1255.5 x10E3/uL
ALANINE AMINOTRANSFERASE [2]: 46.5 u/L
ALBUMIN [2]: 4.38 G/DL
ALKALINE PHOSPHATASE [2]: 336 u/L
ASPARTATE AMINOTRANSFERASE [2]: 76.5 u/L
BLOOD UREA NITROGEN [2]: 20 mg/dL
CARBON DIOXIDE [2]: 27.5 mmol/L
CHLORIDE [2]: 101 MEQ/L
CHOLESTEROL [2]: 71.33 mg/dL
CREATINE PHOSPHOKINASE [2]: 231.83 u/L
CREATININE [2]: 0.37 mg/dL
GLUCOSE [2]: 168.83 mg/dL
LACTATE DEHYDROGENASE [2]: 174 u/L
LIPASE [2]: 8.67 u/L
PHOSPHORUS [2]: 11.48 mg/dL
POTASSIUM [2]: 6.82 MEQ/L
SODIUM [2]: 143.8 MEQ/L
TOTAL BILIRUBIN [2]: 0.2 mg/dL
TOTAL PROTEIN [2]: 5.98 G/DL
URIC ACID [2]: 1.83 mg/dL
ABSOLUTE BASOPHIL [3]: 0 CELLS/uL
ABSOLUTE EOSINOPHIL [3]: 203.67 CELLS/uL
ABSOLUTE LYMPHOCYTE [3]: 12113.67 CELLS/uL
ABSOLUTE MONOCYTE [3]: 0 CELLS/uL
ABSOLUTE SEGMENTED NEUTROPHIL [3]: 916 CELLS/uL
BASOPHIL [3]: 0%
EOSINOPHIL [3]: 1.33%
ERYTHROCYTE COUNT [3]: 5.4 x10E6/uL
HEMATOCRIT [3]: 33.83%
HEMOGLOBIN [3]: 12.8 G/DL
LEUKOCYTE COUNT [3]: 13.23 x10E3/uL
LYMPHOCYTE [3]: 91.33%
MEAN CORPUSCULAR HEMOGLOBIN [3]: 23.7 pg
MEAN CORPUSCULAR HEMOGLOBIN CONCENTRATION [3]: 37.87 G/DL
MEAN CORPUSCULAR VOLUME [3]: 62.67 fL
MONOCYTE [3]: 0%
NEUTROPHIL [3]: 7.33%
NUCLEATED RED BLOOD CELLS [3]: 0 /100WBC
PLATELET COUNT [3]: 1197.67 x10E3/uL
ALANINE AMINOTRANSFERASE [3]: 45.67 u/L
ALBUMIN [3]: 4.13 G/DL
ALKALINE PHOSPHATASE [3]: 348.67 u/L
ASPARTATE AMINOTRANSFERASE [3]: 71.33 u/L
BLOOD UREA NITROGEN [3]: 13.33 mg/dL
CARBON DIOXIDE [3]: 28.67 mmol/L
CHLORIDE [3]: 99.67 MEQ/L
CHOLESTEROL [3]: 58 mg/dL
CREATINE PHOSPHOKINASE [3]: 220.33 u/L
CREATININE [3]: 0.19 mg/dL
GLUCOSE [3]: 174.67 mg/dL
LACTATE DEHYDROGENASE [3]: 227.67 u/L
LIPASE [3]: 8 u/L
PHOSPHORUS [3]: 12.33 mg/dL
POTASSIUM [3]: 6.44 MEQ/L
SODIUM [3]: 143.07 MEQ/L
TOTAL BILIRUBIN [3]: 0.23 mg/dL
TOTAL PROTEIN [3]: 5.67 G/DL
URIC ACID [3]: 1.7 mg/dL
